Measurements as given in publication PMC3958311 (EMBO Molecular Medicine, 2014).
In brackets after ≈: the same amount, converted by molar mass. Where two headings read alike, the source gives them in different places.

How the values were obtained:
[1] = tested on: M. tuberculosis H37Rv; assay: MIC by resazurin reduction microplate assay (REMA); format: cell-based, Mycobacterium tuberculosis; settings: Mycobacterium tuberculosis; for MIC99: read-out: MIC99
[2] = tested on: C. diphtheriae DSM 44123; assay: MIC99 by REMA; format: cell-based, Corynebacterium diphtheriae; settings: Corynebacterium diphtheriae, DSM44123; C. diphtheriae DSM 44123; read-out: MIC99
[3] = tested on: C. glutamicum ATCC 13032; assay: MIC99 by REMA; format: cell-based, Corynebacterium glutamicum; settings: Corynebacterium glutamicum, ATCC13032; C. glutamicum ATCC 13032; read-out: MIC99
[4] = tested on: M. abscessus 2005-0524; assay: MIC99 by REMA; format: cell-based; settings: Mycobacteroides abscessus, 20050524; M. abscessus 2005-0524; read-out: MIC99
[5] = tested on: M. avium ATCC 15769; assay: MIC99 by REMA; format: cell-based; settings: Mycobacterium avium, ATCC15769; M. avium ATCC 15769; read-out: MIC99
[6] = tested on: M. bolletii 1999-0888; assay: MIC99 by REMA; format: cell-based; settings: Mycobacteroides abscessus, 19990888; M. bolletii 1999-0888; read-out: MIC99
[7] = tested on: M. bovis BCG Pasteur; assay: microbe, parasite or virus in culture; format: cell-based, Mycobacterium bovis BCG; settings: Mycobacterium tuberculosis variant bovis BCG, BCG
[8] = tested on: M. bovis BCG BN2; format: cell-based, Mycobacterium bovis BCG
[9] = tested on: M. marinum Strain M; assay: MIC99 by REMA; format: cell-based, Mycobacterium marinum; settings: Mycobacterium marinum; M. marinum Strain M; read-out: MIC99
[10] = tested on: M. massiliense 2005-0484; assay: MIC99 by REMA; format: cell-based; settings: Mycobacteroides abscessus, 20050484; M. massiliense 2005-0484; read-out: MIC99
[11] = tested on: M. smegmatis mc^2155; assay: MIC99 by REMA; format: cell-based, Mycobacterium smegmatis; settings: Mycolicibacterium smegmatis; M. smegmatis mc^2155; read-out: MIC99
[12] = tested on: M. smegmatis GM22; assay: microbe, parasite or virus in culture; format: cell-based; settings: Mycolicibacterium smegmatis; for MIC99: M. smegmatis GM22, overproduces NfnB nitroreductase, read-out: MIC99
[13] = tested on: M. tuberculosis MDR_CHUV; assay: MIC99 by REMA; format: cell-based, Mycobacterium tuberculosis; settings: Mycobacterium tuberculosis; read-out: MIC99
[14] = tested on: M. vaccae ATCC 15483; assay: MIC99 by REMA; format: cell-based; settings: Mycolicibacterium vaccae, ATCC15483; M. vaccae ATCC 15483; read-out: MIC99
[15] = biological target: T1, purified recombinant M. smegmatis NfnB (Mycolicibacterium smegmatis, UniProt A0R6D0); assay: NfnB-mediated nitroreduction followed by LC-MS; format: biochemical
T1 construct: made in house

[16] = biological target: M. tuberculosis DprE1 (Mycobacterium tuberculosis, UniProt P9WJF1); assay: DprE1 inhibition, two step peroxidase-coupled assay with Amplex Red; format: biochemical; settings: 5 min incubation, 5 μM enzyme, 200 μM FPR
[17] = tested on: M. marinum strain M; format: in vivo, zebrafish (Danio rerio); settings: 5 days treatment
[18] = tested on: zebrafish embryos; format: in vivo, zebrafish (Danio rerio)
Procedure: On examination of infected zebrafish embryos treated with BTZ043 it was observed that the compound affected embryo development (Fig 6A–G) especially at concentrations above 25 nM. […] These defects were also observed when uninfected embryos were exposed to BTZ043.
Figure 6 Effect of BTZ043 on M. marinum infected zebrafish embryo development. A–D M. marinum infected zebrafish embryos were treated with BTZ043 for 5 days at the concentrations indicated and photographed using a Leica DFC420C camera. The M strain was used for infection. E–F Images of the notochord from untreated and treated zebrafish, arrows indicate developmental abnormalities. G Analysis of zebrafish embryos displaying developmental abnormalities treated with BTZ043 (BTZ) or PBTZ169 (PBTZ) at the concentrations indicated.

[19] = tested on: M. tuberculosis H37Rv; format: in vivo, BALB/c mice
[20] = in vivo
Procedure: Table S5. Principal pharmacokinetic properties1
1 See Figure S5 for primary data.
Compound levels were measured in serum from individual female mice (3/time point) that had received a single dose of 25 mg/kg. Maximum concentration (Cmax); area under the curve (AUC); apparent clearance.
Comparative pharmacokinetic analysis. After receiving a single dose
(25 mg/kg) of PBTZ169 or BTZ043 by gavage, groups of three female mice were sacrificed at the times indicated, blood was obtained by cardiac puncture and the drug levels in serum determined by LC-MS/MS technique (limit of quantification 10 μg/L).

[21] = tested on: HepG2 human cell line
[22] = mouse
[23] = human
[24] = in vitro; settings: mouse, microsomes
[25] = in vitro; settings: human, microsomes
[26] = tested on: M. tuberculosis H37Rv; assay: Drug susceptibility testing on solid Löwenstein-Jensen medium; format: cell-based; settings: Mycobacterium tuberculosis; H37Rv, Sensitive; solid Löwenstein-Jensen medium, 21-28 days; read-out: MIC
[27] = tested on: M. tuberculosis clinical isolate 4328; assay: as above; format: cell-based; settings: Mycobacterium tuberculosis; […]; solid Löwenstein-Jensen medium; read-out: MIC
[28] = tested on: M. tuberculosis clinical isolate 6341; assay: as above; format: cell-based; settings: Mycobacterium tuberculosis; […]; solid Löwenstein-Jensen medium; read-out: MIC
[29] = tested on: M. tuberculosis clinical isolate 6374; assay: as above; format: cell-based; settings: Mycobacterium tuberculosis; […]; solid Löwenstein-Jensen medium; read-out: MIC
[30] = tested on: M. tuberculosis clinical isolate 5055; assay: as above; format: cell-based; settings: Mycobacterium tuberculosis; […]; solid Löwenstein-Jensen medium; read-out: MIC
[31] = tested on: M. tuberculosis clinical isolate 5253; assay: as above; format: cell-based; settings: Mycobacterium tuberculosis; […]; solid Löwenstein-Jensen medium; read-out: MIC
[32] = tested on: M. tuberculosis clinical isolate 6412; assay: as above; format: cell-based; settings: Mycobacterium tuberculosis; […]; solid Löwenstein-Jensen medium; read-out: MIC
[33] = tested on: M. tuberculosis clinical isolate 6448; assay: as above; format: cell-based; settings: Mycobacterium tuberculosis; […]; solid Löwenstein-Jensen medium; read-out: MIC
[34] = tested on: M. tuberculosis clinical isolate 6418; assay: as above; format: cell-based; settings: Mycobacterium tuberculosis; […]; solid Löwenstein-Jensen medium; read-out: MIC
[35] = tested on: M. tuberculosis clinical isolate 7384; assay: as above; format: cell-based; settings: Mycobacterium tuberculosis; […]; solid Löwenstein-Jensen medium; read-out: MIC
[36] = female, mouse, in vivo, po, 25 mg/kg
[37] = Table 1, H37Rv, REMA, read-out: MIC M. tuberculosis
[38] = Table S1, M. tuberculosis H37Rv, read-out: MIC

T1 sequence (A0R6D0 whole entry): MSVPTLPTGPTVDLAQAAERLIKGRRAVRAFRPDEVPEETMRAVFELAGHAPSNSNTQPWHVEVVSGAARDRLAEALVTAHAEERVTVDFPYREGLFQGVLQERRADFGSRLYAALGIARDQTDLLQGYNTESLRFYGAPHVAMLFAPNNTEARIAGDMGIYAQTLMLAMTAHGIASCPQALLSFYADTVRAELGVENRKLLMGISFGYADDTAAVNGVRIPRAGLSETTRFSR
Chain of M. tuberculosis DprE1 (P9WJF1 whole entry, looked up): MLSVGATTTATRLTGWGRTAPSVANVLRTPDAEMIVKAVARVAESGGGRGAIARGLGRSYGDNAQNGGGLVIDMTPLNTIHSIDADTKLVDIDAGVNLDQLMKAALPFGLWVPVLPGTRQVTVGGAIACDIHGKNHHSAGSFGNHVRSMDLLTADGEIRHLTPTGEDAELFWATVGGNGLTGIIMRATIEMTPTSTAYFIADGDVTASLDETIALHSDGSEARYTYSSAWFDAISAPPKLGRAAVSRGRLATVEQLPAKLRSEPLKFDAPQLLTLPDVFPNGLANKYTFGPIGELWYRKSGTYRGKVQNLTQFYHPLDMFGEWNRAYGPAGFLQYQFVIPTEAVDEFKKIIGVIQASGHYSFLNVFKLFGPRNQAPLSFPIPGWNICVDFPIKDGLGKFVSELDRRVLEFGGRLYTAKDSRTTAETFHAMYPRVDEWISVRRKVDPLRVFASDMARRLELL

C[C@H]1COC2(CCN(c3nc(=O)c4cc(C(F)(F)F)cc([N+](=O)[O-])c4s3)CC2)O1 [BTZ043, 2-[(2S)-2-methyl-1,4-dioxa-8-azaspiro[4.5]dec-8-yl]-8-nitro-6-(trifluoromethyl)-4H-1,3-benzothia-zin-4-one]
MIC99 ([1]; M. tuberculosis H37Rv): 0.001 µg/mL (≈ 0.00232 µM)
MIC99 [2]: 0.06 µg/mL (≈ 0.139 µM)
MIC99 [3]: 0.063 µg/mL (≈ 0.146 µM)
MIC99 [4]: > 100 µg/mL
MIC99 [5]: > 100 µg/mL
MIC99 [6]: > 100 µg/mL
MIC99 [7]: 0.001 µg/mL (≈ 0.00232 µM)
MIC99 [8]: >100 µg/mL
fold increased resistance conferred by the Cys387Ser mutation in DprE1 [8]: > 10 000 fold
MIC99 [9]: 0.0007 µg/mL (≈ 0.00162 µM)
MIC99 [10]: > 100 µg/mL
MIC99 [11]: 0.001 µg/mL (≈ 0.00232 µM)
MIC ([12]; GM22, read-out: MIC for GM22): 0.05 µg/mL (≈ 0.116 µM)
MIC99 [12]: 0.031 µg/mL (≈ 0.0719 µM)
MIC99 [13]: 0.002 µg/mL (≈ 0.00464 µM)
MIC99 [14]: > 100 µg/mL
NfnB-mediated reduction, species found by LC-MS [15]: almost entirely converted to its hydroxylamino analogue
concentration giving full inhibition of DprE1 [16]: 20 µM
effect on the infection in zebrafish embryos ([17]; 5 nM): no significant effect
bacterial burden in infected zebrafish embryos (fluorescence) ([17]; 25 or 50 nM): almost no bacteria were present
embryos affected (notochord defects, shortened Anterior-Posterior axis) ([18]; 25 nM): 60.4%
embryos affected (notochord defects, shortened Anterior-Posterior axis) ([18]; 50 nM): 76.7%
bacterial burden in the lungs lower than untreated control ([19]; 50 mg/kg per day, 28 days): 0.6 logs
bacterial burden in the spleens lower than untreated control ([19]; 50 mg/kg per day, 28 days): 1.7 logs
reduction of bacterial burden in the lungs and spleens ([19]; dose escalation study, 50 mg/kg, four weeks): 1 log
Cmax [20, 36]: 1920 ng/mL
half-life [20, 36]: 1.67 h
k el [20, 36]: 0.000116 s⁻¹
AUC ([20]; serum, female mice, single dose 25 mg/kg by gavage, non-compartmental): 259829 µg·min/L
TD50 ([21]; HepG2): 5 µg/mL
TD50 ([21]; HepG2, REMA, triplicate, toxic dose inhibiting 50% of the population): 5 µg/mL
TD99 ([21]; HepG2, REMA, triplicate, toxic dose inhibiting 99% of the population): 25 µg/mL
selectivity index ([21]; HepG2 cytotoxicity relative to MIC): > 10 000
clearance on incubation with microsomes (in words) [22]: medium clearance values
clearance on incubation with microsomes (in words) [23]: medium clearance values
microsomal CLint [24]: 12.2 µL/min/mg
microsomal CLint [25]: 16 µL/min/mg

NC(=O)N1c2ccccc2C=Cc2ccccc21 [Carbamazepine]
microsomal CLint [24]: 1.1 µL/min/mg
microsomal CLint [25]: 0.5 µL/min/mg

NNC(=O)c1ccncc1 [INH, isoniazid]
MIC [26]: 0.125 µg/mL (≈ 0.911 µM)
MIC [27]: 0.125 µg/mL (≈ 0.911 µM)
MIC [28]: > 20 µg/mL
MIC [29]: > 20 µg/mL
MIC [30]: > 20 µg/mL
MIC [31]: > 20 µg/mL
MIC [32]: > 20 µg/mL
MIC [33]: > 20 µg/mL
MIC [34]: > 20 µg/mL
MIC [35]: > 20 µg/mL

O=c1nc(N2CCN(CCC3CCCCC3)CC2)sc2c([N+](=O)[O-])cc(C(F)(F)F)cc12 [PBTZ129]
MIC [1, 37]: 0.00019 µg/mL (≈ 0.000404 µM)
MIC [1, 38]: 0.00019 µg/mL (≈ 0.000404 µM)

CCCCCCCN1CCN(c2nc(=O)c3cc(C(F)(F)F)cc([N+](=O)[O-])c3s2)CC1 [PBTZ134]
MIC [1, 37]: 0.00019 µg/mL (≈ 0.000414 µM)
MIC [1, 38]: 0.00019 µg/mL (≈ 0.000414 µM)
NfnB-mediated reduction, species found by LC-MS [15]: as susceptible to NfnB-mediated reduction as BTZ043
reduction of bacterial burden in the spleens, fold more than BTZ043 ([19]; 50 mg/kg per day, 28 days): 10 fold

O=c1nc(N2CCN(CCCCOc3ccccc3)CC2)sc2c([N+](=O)[O-])cc(C(F)(F)F)cc12 [PBTZ137]
MIC [1, 37]: 0.0015 µg/mL (≈ 0.00295 µM)
MIC [1, 38]: 0.0015 µg/mL (≈ 0.00295 µM)

O=c1nc(N2CCN(CCCCc3ccccc3)CC2)sc2c([N+](=O)[O-])cc(C(F)(F)F)cc12 [PBTZ139]
MIC [1, 37]: 0.00037 µg/mL (≈ 0.000751 µM)
MIC [1, 38]: 0.00037 µg/mL (≈ 0.000751 µM)

CO[C@H]1/C=C/O[C@@]2(C)Oc3c(C)c(O)c4c(O)c(c(/C=N/N5CCN(C)CC5)c(O)c4c3C2=O)NC(=O)/C(C)=C\C=C\[C@H](C)[C@H](O)[C@@H](C)[C@@H](O)[C@@H](C)[C@H](OC(C)=O)[C@@H]1C [RIF, rifampicin]
MIC99 ([1]; M. tuberculosis H37Rv): 0.001 µg/mL (≈ 0.00122 µM)
MIC99 [2]: 0.0008 µg/mL (≈ 0.000972 µM)
MIC99 [3]: 0.004 µg/mL (≈ 0.00486 µM)
MIC99 [4]: 6.25 µg/mL (≈ 7.59 µM)
MIC99 [5]: 25 µg/mL (≈ 30.4 µM)
MIC99 [6]: 50 µg/mL (≈ 60.8 µM)
MIC99 [7]: 0.001 µg/mL (≈ 0.00122 µM)
MIC99 [8]: 0.0008 µg/mL (≈ 0.000972 µM)
MIC99 [9]: 0.39 µg/mL (≈ 0.474 µM)
MIC99 [10]: 25 µg/mL (≈ 30.4 µM)
MIC99 [11]: 0.5 µg/mL (≈ 0.608 µM)
MIC99 [12]: 1 µg/mL (≈ 1.22 µM)
MIC99 [13]: > 100 µg/mL
MIC99 [14]: 100 µg/mL (≈ 122 µM)
